From ChEMBL document CHEMBL4725266, “Decaturenol A and known oxalicine related meroterpenoids isolated from Penicillium decaturense RO050, and their new biological activities” (Bioorg Med Chem Lett, 2020)
Active and inactive are the calls of the source. The rule behind the calls is not given here.

Legend:
[1] = Cytotoxicity against human MDM cells assessed as reduction in cell viability at 20 ug/ml incubated for 24 hrs by MTT assay; type: cell-based; conditions: dose 20 µg/ml
[2] = Cytotoxicity against human MDM cells assessed as reduction in cell viability at 20 ug/ml incubated for 48 hrs by MTT assay; type: cell-based; conditions: dose 20 µg/ml
[3] = Cytotoxicity against human MDM cells assessed as reduction in cell viability at 40 ug/ml incubated for 24 hrs by MTT assay; type: cell-based; conditions: dose 40 µg/ml
BMDM = assay: Inhibition of IL-10-induced CD163 expression in human MDM cells at 20 ug/ml incubated for 24 hrs by ELISA; type: functional, cell-based; conditions: dose 20.0 µg/ml
HT-22 [4] = assay: Protection against TM mediated ER stress-induced cell death in mouse HT-22 cells assessed as increase in cell viability at 10 uM incubated for 24 hrs by MTT assay; type: functional, cell-based
HT-22 [5] = assay: Cytotoxicity against mouse HT-22 cells assessed as reduction in cell viability at 10 uM incubated for 24 hrs by MTT assay; type: cell-based; conditions: ht-22, 24 h
HT-22 [6] = assay: Cytotoxicity against mouse HT-22 cells assessed as reduction in cell viability at incubated for 24 hrs by MTT assay; type: cell-based; conditions: HT-22, 24 h
HT-22 [7] = assay: Cytotoxicity against mouse HT-22 cells assessed as reduction in cell viability at 10 uM incubated for 24 hrs in presence of tunicamycin by MTT assay; type: cell-based; conditions: ht-22, 24 h

Row | Compound | Activity [1] | Activity [2] | Activity [3] | inhibition (BMDM) | Activity (HT-22 [4]) | Activity (HT-22 [5]) | IC50 (HT-22 [6]) [µM] | Activity (HT-22 [7])
1 | CC1=CC[C@@H]2[C@@]3(C)CC[C@H](O)C(C)(C)[C@@H]3CC[C@@]2(C)[C@]12Cc1c(cc(-c3cccnc3)oc1=O)O2 | Non-Toxic | Toxic | Toxic | Active |  |  |  | 
2 | C/C(=C\CC/C(C)=C/Cc1c(O)cc(-c2cccnc2)oc1=O)CC/C=C(\C)CCC(O)C(C)(C)O (centres undefined) | Non-Toxic | Toxic | Toxic | Active | Active | Non-Toxic |  | 
3 | CC1=CC[C@@H]2[C@]34CC[C@](O)(OC3)C(C)(C)[C@@H]4CC[C@@]2(C)[C@@]12Oc1cc(-c3cccnc3)oc(=O)c1[C@@H]2O [DECATURIN B] | Non-Toxic | Toxic | Toxic | Active | Active | Toxic |  | 
4 | CC1=CC[C@@H]2[C@@]3(C)CCC(=O)C(C)(C)[C@@H]3CC[C@@]2(C)[C@]12Cc1c(cc(-c3cccnc3)oc1=O)O2 [DECATURIN D] | Non-Toxic | Toxic | Toxic | Active | Active | Toxic |  | 
5 | C=C(C)[C@@H]1CC[C@]2(C)[C@H](CC=C(C)[C@]23Oc2cc(-c4cccnc4)oc(=O)c2[C@@H]3O)[C@@]12CCC(=O)OC2 [OXALICINE A] |  |  |  |  |  |  | 5.9 | Toxic
